Assay [1] deals with SW480. In words: Cytotoxicity against human SW480 cells incubated for 48 hrs by MTT assay. The conditions noted are these: SW480, 48 h. The format is functional, cell-based. In general terms: Tetrazolium assays rely on reduction of a dye to a coloured formazan, in cell work by metabolically active cells.
The test system of assay [2] is Tobacco mosaic virus. Nature of the assay: Antiviral activity against 30 mins compound pre-treated TMV U1 infected on Nicotiana glutinosa leaves assessed as virus inactivation effect by measuring local lesion numbers after 3 to 4 days post virus inoculation at 20 ug/ml by half-leaf method relative to untreated control. The conditions noted are these: U1, in Nicotiana glutinosa. The format is functional.

For assay [3], the system named is Tobacco mosaic virus. In words: Antiviral activity against 30 mins compound pre-treated TMV U1 infected on Nicotiana glutinosa leaves assessed as virus inactivation effect by measuring local lesion numbers after 3 to 4 days post virus inoculation at 30 ug/ml by half-leaf method relative to untreated control. Type of assay: functional. The conditions noted are these: U1, in Nicotiana glutinosa.

Assay [4] deals with Tobacco mosaic virus. In words: Potency index, ratio of IC50 for ningnanmycin to IC50 for test compound against 30 mins compound pre-treated TMV U1 infected on Nicotiana glutinosa leaves assessed as virus inactivation effect by measuring local lesion numbers after 3 to 4 days post virus inoculation by half-leaf method relative to untreated control. Type of assay: functional.

Assay [5] deals with Tobacco mosaic virus. In words: Antiviral activity against TMV U1 infected on compound smeared Nicotiana glutinosa leaves assessed as virus infection protective effect by measuring local lesion numbers after 3 to 4 days post virus inoculation at 200 ug/ml by half-leaf method. Type of assay: functional. The conditions noted are these: U1, in Nicotiana glutinosa.
Assay [6] has as its system HL-60. In words: Cytotoxicity against human HL60 cells incubated for 48 hrs by MTT assay. The conditions noted are these: HL-60, 48 h. The format is functional, cell-based.
The subject of assay [7] is SMMC-7721. In words: Cytotoxicity against human SMMC7721 cells incubated for 48 hrs by MTT assay. The format is functional, cell-based. The conditions noted are these: SMMC-7721, 48 h.
Assay [8] deals with Tobacco mosaic virus. Nature of the assay: Antiviral activity against TMV U1 infected on Nicotiana glutinosa leaves smeared with virus before compound treatment assessed as virus infection curative effect by measuring local lesion numbers after 3 to 4 days post virus inoculation at 200 ug/ml by half-leaf method. The conditions noted are these: U1, in Nicotiana glutinosa. Type of assay: functional.

The subject of assay [9] is Tobacco mosaic virus. In words: Antiviral activity against TMV U1 infected on 20 mins compound treated fresh leaves from 5 to 6 growth stage Nicotiana glutinosa assessed as inhibition of virus growth at 50 ug/ml cultured at 25 degC for 72 hrs by half-leaf method. The format is functional. The conditions noted are these: U1, in Nicotiana glutinosa.
Assay [10] concerns Tobacco mosaic virus. In words: Antiviral activity against 30 mins compound pre-treated TMV U1 infected on Nicotiana glutinosa leaves assessed as virus inactivation effect by measuring local lesion numbers after 3 to 4 days post virus inoculation at 50 ug/ml by half-leaf method. The format is functional. The conditions noted are these: U1, in Nicotiana glutinosa.
In assay [11] the test system is Tobacco mosaic virus. Nature of the assay: Antiviral activity against 30 mins compound pre-treated TMV U1 infected on Nicotiana glutinosa leaves assessed as virus inactivation effect by measuring local lesion numbers after 3 to 4 days post virus inoculation at 5 ug/ml by half-leaf method relative to untreated control. Type of assay: functional. The conditions noted are these: U1, in Nicotiana glutinosa.

The subject of assay [12] is Tobacco mosaic virus. In words: Antiviral activity against 30 mins compound pre-treated TMV U1 infected on Nicotiana glutinosa leaves assessed as virus inactivation effect by measuring local lesion numbers after 3 to 4 days post virus inoculation at 40 ug/ml by half-leaf method relative to untreated control. Type of assay: functional. The conditions noted are these: U1, in Nicotiana glutinosa.

Assay [13] concerns Tobacco mosaic virus. In words: Antiviral activity against 30 mins compound pre-treated TMV U1 infected on Nicotiana glutinosa leaves assessed as virus inactivation effect by measuring local lesion numbers after 3 to 4 days post virus inoculation at 10 ug/ml by half-leaf method relative to untreated control. Type of assay: functional. The conditions noted are these: U1, in Nicotiana glutinosa.

Assay [14] deals with A549. Nature of the assay: Cytotoxicity against human A549 cells incubated for 48 hrs by MTT assay. The format is functional, cell-based. The conditions noted are these: A549, 48 h.
Assay [15] concerns Tobacco mosaic virus. Nature of the assay: Antiviral activity against 30 mins compound pre-treated TMV U1 infected on Nicotiana glutinosa leaves assessed as virus inactivation effect by measuring local lesion numbers after 3 to 4 days post virus inoculation at 50 ug/ml by half-leaf method relative to untreated control. The format is functional. The conditions noted are these: U1, in Nicotiana glutinosa.

In assay [16] the test system is MCF7. In words: Cytotoxicity against human MCF7 cells incubated for 48 hrs by MTT assay. The format is functional, cell-based. The conditions noted are these: MCF7, 48 h.
Assay [17] deals with Tobacco mosaic virus. In words: Antiviral activity against 30 mins compound pre-treated TMV U1 infected on Nicotiana glutinosa leaves assessed as virus inactivation effect by measuring local lesion numbers after 3 to 4 days post virus inoculation by half-leaf method relative to untreated control. Type of assay: functional, organism-based.

Values after ≈ are worked out from the molar mass of the structure shown.

From ChEMBL document CHEMBL3580639, “Bioactive Limonoid Constituents of Munronia henryi” (J Nat Prod, 2015) come the findings set out here.

As usually defined, the IC50 is the concentration needed to halve the response being measured. In general, inhibition refers to the share of the control response that was lost under treatment. For the compound `CC(=O)O[C@@H]1[C@@H]2[C@@]3(C)C=CC(=O)OC(C)(C)[C@@H]3CC(=O)[C@@]2(C)[C@@]23O[C@@H]2C[C@@H](c2ccoc2)[C@]3(C)[C@H]1OC(C)=O`, the half-maximal inhibitory concentration (IC50) in assay [1] is over 10 µM; in [6], over 10 µM; in assay [7] it was over 10 µM; in assay [14] it was over 10 µM; in assay [16], over 10 µM; in [17] it was 19.6 µg/mL (≈ 36.3 µM). For the same compound, the inhibition at 20 µg/mL in assay [2] was 62.3%. In addition, the inhibition at 30 µg/mL in assay [3] turned out to be 86.1%. Also, the “Ratio IC50” value in assay [4] is given as 2. The inhibition at 200 µg/mL in [5] was 56.7%; in assay [8] it was 52.8%. The figures for the inhibition at 50 µg/mL in [9], in assay [10] and in assay [15] were 98.9%, 98.2% and 95.6%, respectively. Further, the inhibition at 5 µg/mL in assay [11] was 11.8%. Further, the inhibition at 40 µg/mL in [12] was 92.3%. Moreover, in assay [13], the inhibition at 10 µg/mL is 30.9%.

Take `CC(=O)O[C@@H]1[C@@H]2[C@@]3(C)[C@@H](OC(C)=O)CC(=O)OC(C)(C)[C@@H]3CC(=O)[C@@]2(C)[C@@]23O[C@@H]2C[C@@H](c2ccoc2)[C@]3(C)[C@H]1OC(C)=O`: the IC50 in assay [1] was over 10 µM; in [6] it was over 10 µM; in assay [7], over 10 µM; in assay [14] it was over 10 µM; in [16], over 10 µM; in assay [17], 20.4 µg/mL (≈ 34 µM). Besides, in [2], the inhibition at 20 µg/mL turned out to be 64.9%. The inhibition at 30 µg/mL in [3] turned out to be 80.3%. In addition, the inhibition at 200 µg/mL was found to be 60.2% in [5] and 57.6% in assay [8]. Further, the inhibition at 50 µg/mL in [9] turned out to be 97.6%; in assay [10], 95.3%; in [15], 93.9%. For the same compound, in [11], the inhibition at 5 µg/mL turned out to be 9.7%. In addition, in assay [12], the inhibition at 40 µg/mL is 91.4%. Further, in assay [13], the inhibition at 10 µg/mL is 28.7%.

For `C/C=C(\C)C(=O)O[C@H]1C[C@@H](OC(C)=O)[C@@]2(C)CO[C@H]3[C@@H](O)[C@@]4(C)C5=C(C)[C@H](c6ccoc6)C[C@@H]5O[C@H](OC)C[C@@H]4[C@]1(C)[C@@H]32`, the IC50 in assay [1] was over 10 µM; in assay [6], over 10 µM; in assay [7] it was over 10 µM; in assay [14] it was over 10 µM; in [16], over 10 µM; in [17], 25.8 µg/mL (≈ 43.1 µM). The inhibition at 20 µg/mL in assay [2] was determined as 39.7%. For the same compound, the inhibition at 30 µg/mL in assay [3] is 68.2%. Moreover, the inhibition at 200 µg/mL in assay [5] worked out at 63.8%; in assay [8] it was 59.6%. Besides, the inhibition at 50 µg/mL in [9] turned out to be 97.9%; in assay [10], 91.4%; in assay [15], 92.8%. In addition, in assay [12], the inhibition at 40 µg/mL was found to be 79.8%. In addition, in [13], the inhibition at 10 µg/mL is 20.5%.

As to `C/C=C(\C)C(=O)O[C@H]1C[C@@H](OC(C)=O)[C@@]2(C)CO[C@H]3[C@@H](O)[C@@]4(C)C5=C(C)[C@H](c6ccoc6)C[C@H]5O[C@@H](OC)C[C@@H]4[C@]1(C)[C@@H]32`, the 50% inhibitory concentration (IC50) in [1] was over 10 µM; in assay [6], over 10 µM; in assay [7], over 10 µM; in assay [14], over 10 µM; in assay [16], over 10 µM; in [17], 28.1 µg/mL (≈ 46.9 µM). Besides, the inhibition at 20 µg/mL in assay [2] is 30.7%. Also, the inhibition at 30 µg/mL in assay [3] turned out to be 63.5%. The inhibition at 200 µg/mL in assay [5] was 63.8%; in assay [8], 44.9%. In addition, the figures for the inhibition at 50 µg/mL in assay [9], in assay [10] and in [15] were 98.5%, 88.9% and 86.9%, respectively. In addition, the inhibition at 5 µg/mL in [11] came to 6.3%. Further, in assay [12], the inhibition at 40 µg/mL worked out at 70.3%. Besides, the inhibition at 10 µg/mL in assay [13] stood at 16.4%.

Turning to `CC(=O)O[C@H]1C[C@H]2[C@](C)(C3=CC[C@@H](c4ccoc4)[C@@]31C)[C@H](OC(C)=O)C[C@H]1C(C)(C)OC(=O)C[C@H](OC(C)=O)[C@@]12C` [MUNRONOID L], the concentration for half-maximal inhibition (IC50) in assay [1] is over 10 µM; in assay [6], over 10 µM; in [7] it was over 10 µM; in [14], over 10 µM; in assay [16], over 10 µM; in [17] it was 29 µg/mL (≈ 50.8 µM). For the same compound, the inhibition at 20 µg/mL in assay [2] turned out to be 48%. The inhibition at 30 µg/mL in assay [3] turned out to be 51.4%. Further, the inhibition at 200 µg/mL in [5] stood at 42.1%; in assay [8], 23.7%. The inhibition at 50 µg/mL in [9] turned out to be 80%; in [10], 61.4%; in [15], 60.8%. The inhibition at 5 µg/mL in assay [11] is 10.2%. The inhibition at 40 µg/mL in [12] came to 57.6%. Moreover, the inhibition at 10 µg/mL in assay [13] turned out to be 21.5%.

Turning to `C=C1[C@@H]([C@@]2(C)[C@@H](OC(C)=O)CC(=O)O[C@](C)(COC(C)=O)[C@@H]2C(=O)OC)[C@@H](OC=O)[C@H](OC(=O)[C@H](O)[C@H](C)CC)[C@@]2(C)[C@H](c3ccoc3)CC(=O)[C@]12O` [PRIEURIANIN], the half-maximal inhibitory concentration (IC50) in [1] amounted to 1.2 µM; in [6], 4.8 µM; in assay [7], 0.73 µM; in assay [14], 1 µM; in assay [16], 2.2 µM; in [17], 44.4 µg/mL (≈ 59.3 µM). In addition, the inhibition at 20 µg/mL in assay [2] is 11.7%. The inhibition at 30 µg/mL in assay [3] was found to be 35.6%. Moreover, the figures for the inhibition at 200 µg/mL in assay [5] and in assay [8] were 45.7% and 41.6%, respectively. Besides, the values for the inhibition at 50 µg/mL in assay [9], in assay [10] and in assay [15] were 75.9%, 68.1% and 70.5%, respectively. Besides, the inhibition at 40 µg/mL in assay [12] was determined as 39.3%. Also, the inhibition at 10 µg/mL in [13] worked out at 3.5%.
